Earlier results in US20200354441A1, “TREATMENT OF DISORDERS” (Apellis Pharmaceuticals, Inc., priority 2017, published 2020).

Assays:
complement activation = conditions: relative to compstatin amidated at the C-terminus; published data (WO2004/026328, WO2007044668, Mallik 2005, Katragadda 2006)
[1] = test system: complement activation (alternative pathway); conditions: alternative pathway-mediated erythrocyte lysis assay (WO2004/026328)

| IC50 [1] [µM] | Compound | Activity over compstatin (complement activation) [× more] |
| --- | --- | --- |
| – | Ac-ICVWQDWGAHRCdT-COOH [Ac-V4W/H9A/T13dT -OH] | 55 |
| – | H-GICV(6fW)QD(6fW)GAHRCTN-COOH (6-fluoro-Trp, C-terminal acid) [+G/V4(6fW)/W7(6fW)H9A+N-OH] | 126 |
| 12 | CC[C@H](C)[C@H](N)C(=O)N[C@H]1CSSC[C@@H](C(=O)N[C@H](C(N)=O)[C@@H](C)O)NC(=O)[C@H](CCCN=C(N)N)NC(=O)[C@H](Cc2cnc[nH]2)NC(=O)[C@H](Cc2cnc[nH]2)NC(=O)CNC(=O)[C@H](Cc2c[nH]c3ccccc23)NC(=O)[C@H](CC(=O)O)NC(=O)[C@H](CCC(N)=O)NC(=O)[C@H](C(C)C)NC(=O)[C@H](C(C)C)NC1=O [Compstatin, H-ICVVQDWGHHRCT-CONH2] | – |
| – | Ac-ICVVQDWGHHRCT-CONH2 [Ac-compstatin] | 3 |
| – | Ac-ICVWQD(5fW)GAHRCT-CONH2 [Ac-V4W/W7(5fW)/H9A] | 121 |
